According to US8815881B2 (Hoffmann-La Roche Inc., priority 2010, dated 2014):
Structures can show the parent of a compound that is named as a salt.

What follows are compounds tested against endogenous cellular BACE2 in the Ins1e rat cell line (Rattus norvegicus (Rat), UniProt Q6IE75) (assay: Assay for BACE inhibition by measuring cellular TMEM27 cleavage (ELISA of shed hTMEM27 from INS-TMEM27 cells)). Details: assay a): cellular TMEM27 cleavage, INS-TMEM27 cells (superscript a).
Type: cell-based
Source text: a) Assay for BACE Inhibition by Measuring Cellular TMEM27 Cleavage:
The assay uses the principle of inhibition of human TMEM27 cleavage by endogenous cellular BACE2 in the Ins1e rat cell line and shedding from the cell surface into the culture medium, followed by detection in an ELISA assay. Inhibition of BACE2 prevents the cleavage and shedding in a dose-dependent manner.
The stable cell line “INS-TMEM27” represents an INS1e-derived cell line with inducible expression (using the TetOn system) of full-length hTMEM27 in a doxycycline-dependent manner. The cells are cultured throughout the experiment in RPMI1640+Glutamax (Invitrogen) Penicillin/Streptomycin, 10% Fetal bovine serum, […], […], 100 micrograms/ml G418 and 100 microgram/ml hygromycin and are grown inadherent culture at 37° C. in a standard CO2 cell culture incubator.
INS-TMEM27 cells are seeded in 96-well plates. After 2 days in culture, BACE2 inhibitor is added in a range of concentrations as required by the assay and after a further two hours, doxycycline is added to a final concentration of 500 ng/ml. The cells are incubated for a further 46 hours and the supernatant harvested for detection of shed TMEM27.
An ELISA assay (using a pair of mouse anti-human-TMEM27 antibodies, raised against the extracellular domain of TMEM27) is used for detection of TMEM27 in the culture medium. An EC50 for BACE2 inhibition is calculated using the ELISA readout for each inhibitor concentration with standard curve-fitting software such as XLFit for the Excel spreadsheet program.

endogenous cellular BACE2 in the Ins1e rat cell line, sequence (Q6IE75 63-514): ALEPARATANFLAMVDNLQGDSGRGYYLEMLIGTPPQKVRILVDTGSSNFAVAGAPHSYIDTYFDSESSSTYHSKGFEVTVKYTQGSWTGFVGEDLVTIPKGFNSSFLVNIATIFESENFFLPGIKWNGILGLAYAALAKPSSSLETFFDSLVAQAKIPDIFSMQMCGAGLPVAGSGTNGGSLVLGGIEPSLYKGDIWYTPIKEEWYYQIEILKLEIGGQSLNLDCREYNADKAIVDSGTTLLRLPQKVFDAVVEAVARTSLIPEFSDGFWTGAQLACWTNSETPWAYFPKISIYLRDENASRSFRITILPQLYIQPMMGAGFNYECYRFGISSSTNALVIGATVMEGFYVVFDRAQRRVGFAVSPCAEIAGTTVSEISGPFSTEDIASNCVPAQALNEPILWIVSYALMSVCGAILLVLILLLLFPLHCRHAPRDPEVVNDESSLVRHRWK

SMILES | IC50
CN1C(=O)C(C)(C)[C@@](C)(c2cc(Nc3ccccn3)ccc2F)N=C1N [Example 105, (S)-2-Amino-6-(2-fluoro-5-(pyridin-2-ylamino)phenyl)-3,5,5,6-tetramethyl-5,6-dihydropyrimidin-4(3H)-one] | 12 nM
CN1C(=O)C(C)(C)[C@@](C)(c2cc(NC3CC(C)(C)CC3O)ccc2F)N=C1N (stereo partly drawn) [Example 158, (S)-2-Amino-6-[2-fluoro-5-(2-hydroxy-4,4-dimethyl-cyclopentylamino)-phenyl]-3,5,5,6-tetramethyl-5,6-dihydro-3H-pyrimidin-4-one] | 298 nM
CN1C(=O)C(C)(C)[C@@](C)(c2cc(NC3CCN(Cc4ccccc4)C3)ccc2F)N=C1N (stereo partly drawn) [Example 32, (6S)-2-Amino-6-(5-(1-benzylpyrrolidin-3-ylamino)-2-fluorophenyl)-3,5,5,6-tetramethyl-5,6-dihydropyrimidin-4(3H)-one] | 32 nM
CN1C(=O)C(C)(C)[C@@](C)(c2cc(NC3CCc4cccc(Cl)c43)ccc2F)N=C1N (stereo partly drawn) [Example 49, (S)-2-Amino-6-[5-(7-chloro-indan-1-ylamino)-2-fluoro-phenyl]-3,5,5,6-tetramethyl-5,6-dihydro-3H-pyrimidin-4-one] | 321 nM
CC(Nc1ccc(F)c([C@@]2(C)N=C(N)N(C)C(=O)C2(C)C)c1)c1ccccn1 (stereo partly drawn) [Example 40] | 21 nM
CN1C(=O)C(C)(C)[C@@](C)(c2cc(NC3CCCOC3)ccc2F)N=C1N (stereo partly drawn) [Example 45, (S)-2-Amino-6-[2-fluoro-5-(tetrahydro-pyran-3-ylamino)-phenyl]-3,5,5,6-tetramethyl-5,6-dihydro-3H-pyrimidin-4-one] | 11 nM
CN1C(=O)C(C)(C)[C@@](C)(c2cc(NC3CCc4cc(Cl)cnc43)ccc2F)N=C1N (stereo partly drawn) [Example 62, (6S)-2-Amino-6-(5-(3-chloro-6,7-dihydro-5H-cyclopenta[b]pyridin-7-ylamino)-2-fluorophenyl)-3,5,5,6-tetramethyl-5,6-dihydropyrimidin-4(3H)-one] | 1 nM
Cc1ccc(Cl)cc1Nc1ccc(F)c([C@@]2(C)N=C(N)N(C)C(=O)C2(C)C)c1 [Example 118, (S)-2-Amino-6-(5-(5-chloro-2-methylphenylamino)-2-fluorophenyl)-3,5,5,6-tetramethyl-5,6-dihydropyrimidin-4(3H)-one] | 2 nM
Cc1cn[nH]c1CNc1ccc(F)c([C@@]2(C)N=C(N)N(C)C(=O)C2(C)C)c1 [Example 110, (S)-2-Amino-6-{2-fluoro-5-[(4-methyl-2H-pyrazol-3-ylmethyl)-amino]-phenyl}-3,5,5,6-tetramethyl-5,6-dihydro-3H-pyrimidin-4-one] | 391 nM
CCNc1ccc(F)c([C@@]2(C)N=C(N)N(C)C(=O)C2(C)C)c1 [Example 91, (S)-2-Amino-6-(5-ethylamino-2-fluoro-phenyl)-3,5,5,6-tetramethyl-5,6-dihydro-3H-pyrimidin-4-one] | 322 nM
CN1C(=O)C(C)(C)[C@@](C)(c2cc(NC(=O)C3(C)CC3)ccc2F)N=C1N [Example 18, (S)—N-(3-(2-Amino-1,4,5,5-tetramethyl-6-oxo-1,4,5,6-tetrahydropyrimidin-4-yl)-4-fluorophenyl)-1-methylcyclopropanecarboxamide] | 23 nM
CN1C(=O)C(C)(C)[C@@](C)(c2cc(NC3CC(C)(C)c4ccccc43)ccc2F)N=C1N (stereo partly drawn) [Example 106, (6S)-2-Amino-6-(5-(3,3-dimethyl-2,3-dihydro-1H-inden-1-ylamino)-2-fluorophenyl)-3,5,5,6-tetramethyl-5,6-dihydropyrimidin-4(3H)-one] | 2 nM
COc1cccc(Nc2ccc(F)c([C@@]3(C)N=C(N)N(C)C(=O)C3(C)C)c2)c1 [Example 79, (S)-2-Amino-6-(2-fluoro-5-(3-methoxyphenylamino)phenyl)-3,5,5,6-tetramethyl-5,6-dihydropyrimidin-4(3H)-one] | 44 nM
CN1C(=O)C(C)(C)[C@@](C)(c2cc(NC3CCOC3)ccc2F)N=C1N (stereo partly drawn) [Example 22, (S)-2-Amino-6-[2-fluoro-5-(tetrahydro-furan-3-ylamino)-phenyl]-3,5,5,6-tetramethyl-5,6-dihydro-3H-pyrimidin-4-one] | 5 nM
Cc1nc(C(C)Nc2ccc(F)c([C@@]3(C)N=C(N)N(C)C(=O)C3(C)C)c2)c(C(F)(F)F)o1 (stereo partly drawn) [Example 159, (S)-2-Amino-6-{2-fluoro-5-[1-(2-methyl-5-trifluoromethyl-oxazol-4-yl)-ethylamino]-phenyl}-3,5,5,6-tetramethyl-5,6-dihydro-3H-pyrimidin-4-one] | 24 nM
CN1C(=O)C(C)(C)[C@@](C)(c2cc(NC3COc4cc(Cl)ccc43)ccc2F)N=C1N (stereo partly drawn) [Example 133, (S)-2-Amino-6-[5-(6-chloro-2,3-dihydro-benzofuran-3-ylamino)-2-fluoro-phenyl]-3,5,5,6-tetramethyl-5,6-dihydro-3H-pyrimidin-4-one] | 41 nM
Cc1nc(CNc2ccc(F)c([C@@]3(C)N=C(N)N(C)C(=O)C3(C)C)c2)co1 [Example 109, (S)-2-Amino-6-{2-fluoro-5-[(2-methyl-oxazol-4-ylmethyl)-amino]-phenyl}-3,5,5,6-tetramethyl-5,6-dihydro-3H-pyrimidin-4-one] | 45 nM
CN1C(=O)C(C)(C)[C@@](C)(c2cc(NC3CCOc4cc(F)ccc43)ccc2F)N=C1N (stereo partly drawn) [Example 140, (S)-2-Amino-6-[2-fluoro-5-(7-fluoro-chroman-4-ylamino)-phenyl]-3,5,5,6-tetramethyl-5,6-dihydro-3H-pyrimidin-4-one] | 47 nM
CCC1CC(Nc2ccc(F)c([C@@]3(C)N=C(N)N(C)C(=O)C3(C)C)c2)c2ccccc21 (stereo partly drawn) [Example 113, (S)-2-Amino-6-[5-(3-ethyl-indan-1-ylamino)-2-fluoro-phenyl]-3,5,5,6-tetramethyl-5,6-dihydro-3H-pyrimidin-4-one] | 36 nM
CN1C(=O)C(C)(C)[C@@](C)(c2cc(NC3CCC(CC(=O)O)C3(C)C)ccc2F)N=C1N (stereo partly drawn) [Example 116, 2-(3-(3-((S)-2-Amino-1,4,5,5-tetramethyl-6-oxo-1,4,5,6-tetrahydropyrimidin-4-yl)-4-fluorophenylamino)-2,2-dimethylcyclopentyl)acetic acid] | 2160 nM
CC(Nc1ccc(F)c([C@@]2(C)N=C(N)N(C)C(=O)C2(C)C)c1)C1CC1 (stereo partly drawn) [Example 37, (S)-2-Amino-6-[5-(1-cyclopropyl-ethylamino)-2-fluoro-phenyl]-3,5,5,6-tetramethyl-5,6-dihydro-3H-pyrimidin-4-one] | 39 nM
CN1C(=O)C(C)(C)[C@@](C)(c2cc(NC3CCc4cc(Cl)ccc43)ccc2F)N=C1N (stereo partly drawn) [Example 29, (S)-2-Amino-6-[5-(5-chloro-indan-1-ylamino)-2-fluoro-phenyl]-3,5,5,6-tetramethyl-5,6-dihydro-3H-pyrimidin-4-one] | 32 nM
CN1C(=O)C(C)(C)[C@@](C)(c2cc(Nc3ccc(F)cc3)ccc2F)N=C1N [Example 89, (S)-2-Amino-6-[2-fluoro-5-(4-fluoro-phenylamino)-phenyl]-3,5,5,6-tetramethyl-5,6-dihydro-3H-pyrimidin-4-one] | 1140 nM
CN1C(=O)C(C)(C)[C@@](C)(c2cc(Nc3ccn[nH]3)ccc2F)N=C1N [Example 124, (S)-6-(5-(1H-Pyrazol-5-ylamino)-2-fluorophenyl)-2-amino-3,5,5,6-tetramethyl-5,6-dihydropyrimidin-4(3H)-one hydrochloride] | 589 nM
CC(Cc1ccc(F)cc1)Nc1ccc(F)c([C@@]2(C)N=C(N)N(C)C(=O)C2(C)C)c1 (stereo partly drawn) [Example 42, (S)-2-Amino-6-{2-fluoro-5-[2-(4-fluoro-phenyl)-1-methyl-ethylamino]-phenyl}-3,5,5,6-tetramethyl-5,6-dihydro-3H-pyrimidin-4-one] | 211 nM
CN1C(=O)C(C)(C)[C@@](C)(c2cc(NC(=O)[C@H]3CC3(F)F)ccc2F)N=C1N [Example 9, (R)-2,2-Difluoro-cyclopropanecarboxylic acid [3-((S)-2-amino-1,4,5,5-tetramethyl-6-oxo-1,4,5,6-tetrahydro-pyrimidin-4-yl)-4-fluoro-phenyl]-amide] | 25 nM
CN1C(=O)C(C)(C)[C@@](C)(c2cc(Nc3ccccc3C#N)ccc2F)N=C1N [Example 103, (S)-2-(3-(2-Amino-1,4,5,5-tetramethyl-6-oxo-1,4,5,6-tetrahydropyrimidin-4-yl)-4-fluorophenylamino)benzonitrile] | 1 nM
CC1CCCC1Nc1ccc(F)c([C@@]2(C)N=C(N)N(C)C(=O)C2(C)C)c1 (stereo partly drawn) [Example 25, (S)-2-Amino-6-[2-fluoro-5-(2-methyl-cyclopentylamino)-phenyl]-3,5,5,6-tetramethyl-5,6-dihydro-3H-pyrimidin-4-one] | 4 nM
COc1ccccc1Nc1ccc(F)c([C@@]2(C)N=C(N)N(C)C(=O)C2(C)C)c1 [Example 56, (S)-2-Amino-6-(2-fluoro-5-(2-methoxyphenylamino)phenyl)-3,5,5,6-tetramethyl-5,6-dihydropyrimidin-4(3H)-one] | 15 nM
Cc1ccc2c(c1)C(Nc1ccc(F)c([C@@]3(C)N=C(N)N(C)C(=O)C3(C)C)c1)CC2(C)C (stereo partly drawn) [Example 46, (S)-2-Amino-6-[2-fluoro-5-(3,3,6-trimethyl-indan-1-ylamino)-phenyl]-3,5,5,6-tetramethyl-5,6-dihydro-3H-pyrimidin-4-one] | 109 nM
